“And” between values parts separate entries of the source, which are not always exact repeats. Equal entries are not always repeated.
Columns and labels:
[1] = molecular target: Cyclin-dependent kinase 1 (Homo sapiens, UniProt P06493); test: Inhibitory concentration against Cyclin dependent kinase 1
[2] = molecular target: Mitogen-activated protein kinase 3 (Homo sapiens, UniProt P27361); test: Inhibitory concentration against Extracellular signal-regulated kinase 1
[3] = Inhibitory concentration against Platelet-derived growth factor receptor
[4] = Inhibitory concentration against Mitogen-activated protein kinase p38; set-up: species or system Homo sapiens
[5] = Inhibitory concentration against Casein kinase 2
[6] = Inhibitory concentration against Cyclin dependent kinase 2; set-up: species or system Homo sapiens
[7] = molecular target: Cyclin-dependent kinase 4 (Homo sapiens, UniProt P11802); test: Inhibitory concentration against Cyclin dependent kinase 4
Sequence of Cyclin-dependent kinase 4 (P11802 whole entry): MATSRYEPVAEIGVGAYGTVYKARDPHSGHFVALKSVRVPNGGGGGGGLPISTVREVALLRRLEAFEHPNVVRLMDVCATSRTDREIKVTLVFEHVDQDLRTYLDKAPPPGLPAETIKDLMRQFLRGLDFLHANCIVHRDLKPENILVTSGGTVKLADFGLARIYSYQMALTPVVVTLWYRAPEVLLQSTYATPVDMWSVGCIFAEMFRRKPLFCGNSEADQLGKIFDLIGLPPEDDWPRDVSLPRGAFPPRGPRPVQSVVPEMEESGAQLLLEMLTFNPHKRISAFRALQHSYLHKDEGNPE

Sequence of Cyclin-dependent kinase 1 (P06493 whole entry): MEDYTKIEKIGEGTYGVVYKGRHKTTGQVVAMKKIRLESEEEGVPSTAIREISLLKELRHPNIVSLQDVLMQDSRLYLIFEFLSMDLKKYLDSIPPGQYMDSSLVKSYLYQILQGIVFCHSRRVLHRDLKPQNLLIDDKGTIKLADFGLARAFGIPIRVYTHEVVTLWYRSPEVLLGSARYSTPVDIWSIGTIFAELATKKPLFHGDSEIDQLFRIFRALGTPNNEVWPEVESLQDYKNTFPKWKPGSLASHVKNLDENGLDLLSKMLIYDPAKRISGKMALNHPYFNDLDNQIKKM
Sequence of Mitogen-activated protein kinase 3 (P27361 whole entry): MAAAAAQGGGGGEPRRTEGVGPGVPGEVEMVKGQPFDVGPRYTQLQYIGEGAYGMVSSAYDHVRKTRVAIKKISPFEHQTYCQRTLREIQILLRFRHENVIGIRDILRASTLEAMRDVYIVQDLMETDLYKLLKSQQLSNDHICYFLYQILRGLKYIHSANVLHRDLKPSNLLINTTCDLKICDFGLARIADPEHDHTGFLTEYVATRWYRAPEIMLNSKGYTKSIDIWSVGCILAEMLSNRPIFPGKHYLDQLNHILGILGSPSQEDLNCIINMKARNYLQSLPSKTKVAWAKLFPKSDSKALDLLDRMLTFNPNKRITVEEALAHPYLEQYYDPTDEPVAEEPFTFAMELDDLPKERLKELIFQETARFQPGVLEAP

Row | IC50 [1] | Structure (SMILES) | further results
1 | 25 nM | CC(C)Oc1nc(Nc2ccc3nc[nH]c3c2)ncc1C(F)(F)F | 
2 | 126 nM | Clc1cccc(CNc2nc(Nc3ccc4[nH]cnc4c3)ncc2Br)c1Cl | 
3 | > 1000 nM | c1cc(Nc2ccc3[nH]cnc3c2)nc(Nc2ccc3[nH]cnc3c2)n1 | 
4 | 4 nM | FC(F)(F)c1cnc(Nc2ccc3nc[nH]c3c2)nc1Nc1ccc(Cl)cc1 | 
5 | 43 nM | FC(F)(F)c1cnc(Nc2ccc3[nH]cnc3c2)nc1OC1CCCCC1 | 
6 | 562 nM | FC(F)(F)c1cnc(Nc2ccc3nc[nH]c3c2)nc1Oc1ccc(Br)cc1 | 
7 | 430 nM | Fc1cnc(Nc2ccc3nc[nH]c3c2)nc1Nc1ccc2nc[nH]c2c1 | 
8 | 34 nM | Brc1cnc(Nc2ccc3nc[nH]c3c2)nc1Nc1ccc(Oc2cccnc2)cc1 | 
9 | > 1000 nM | c1cc(Nc2ccc3[nH]ccc3c2)nc(Nc2ccc3[nH]ccc3c2)n1 | 
10 | 4 nM | Fc1ccc(Nc2nc(Nc3ccc4[nH]cnc4c3)ncc2Br)cc1 | 
11 | 252 nM | FC(F)(F)c1cnc(Nc2ccc3nc[nH]c3c2)nc1Oc1ccc(Cl)cc1 | 
12 | > 1000 nM | CN(c1cccc(Cl)c1)c1ncc(C(F)(F)F)c(Nc2ccc3nc[nH]c3c2)n1 | 
13 | 248 nM | Brc1cnc(Nc2ccc(Oc3cccnc3)cc2)nc1Nc1ccc2nc[nH]c2c1 | 
14 | 15 nM | FC(F)(F)c1ccc(Nc2ncc(C(F)(F)F)c(Nc3ccc4nc[nH]c4c3)n2)cc1 | 
15 | 11 nM | FC(F)(F)c1cnc(Nc2ccc(Br)cc2)nc1Nc1ccc2[nH]cnc2c1 | IC50 [2]: 750 nM; IC50 [3]: 190 nM; IC50 [6]: 73 nM; IC50 [7]: 260 nM and 1200 nM; IC50 [4]: > 1000 nM; IC50 [5]: 91 nM
16 | > 1000 nM | Fc1cnc(Nc2ccc3[nH]ccc3c2)nc1Nc1ccc2[nH]ccc2c1 | 
17 | 32 nM | Fc1ccc(Oc2nc(Nc3ccc4[nH]cnc4c3)ncc2C(F)(F)F)cc1 | 
18 | 34 nM | Brc1cnc(Nc2ccc3[nH]cnc3c2)nc1NC1CCc2ccccc21 (centres undefined) | 
19 | 9 nM | Clc1cccc(Nc2ncc(Br)c(Nc3ccc4nc[nH]c4c3)n2)c1 | 
20 | 9 nM | Brc1cnc(Nc2ccc3[nH]cnc3c2)nc1Nc1ccc2c(c1)OCO2 | 

The next lines start with the molecule.

Row | Structure (SMILES) | IC50 [1] | further results
21 | FC(F)(F)c1ccc(Oc2nc(Nc3ccc4[nH]cnc4c3)ncc2C(F)(F)F)cc1 | > 1000 nM | 
22 | CC(C)COc1nc(Nc2ccc3[nH]cnc3c2)ncc1C(F)(F)F | 2 nM | 
23 | FC(F)(F)c1cnc(Nc2ccc3[nH]cnc3c2)nc1Nc1ccc2[nH]cnc2c1 | 10 nM | 
24 | FC(F)(F)c1cnc(Nc2ccc3nc[nH]c3c2)nc1Nc1cccc(Cl)c1 | 3 nM | 
25 | FC(F)(F)c1cnc(Nc2ccccc2Cl)nc1Nc1ccc2nc[nH]c2c1 | > 1000 nM | 
26 | Cc1ccccc1Sc1nc(Nc2ccc3[nH]cnc3c2)ncc1C(F)(F)F | 135 nM | 
27 | CCOc1nc(Nc2ccc3nc[nH]c3c2)ncc1C(F)(F)F | 77 nM | 
28 | NS(=O)(=O)c1ccc(Nc2ncc(C(F)(F)F)c(Nc3ccc4nc[nH]c4c3)n2)cc1 | 0.1 nM | 
29 | FC(F)(F)c1cnc(Nc2ccc3[nH]cnc3c2)nc1Nc1ccccc1Cl |  | IC50 [2]: > 1000 nM; IC50 [3]: 290 nM; IC50 [4]: > 1000 nM; IC50 [5]: 510 nM
30 | COc1cccc(Sc2nc(Nc3ccc4nc[nH]c4c3)ncc2C(F)(F)F)c1 | > 1000 nM | 
31 | Brc1cnc(Nc2ccc3nc[nH]c3c2)nc1NC1CCCc2ccccc21 (centres undefined) | 392 nM | 
32 | Brc1cnc(Nc2ccc3[nH]ccc3c2)nc1Nc1ccc2[nH]ccc2c1 | > 1000 nM | 
33 | Cc1ccccc1Oc1nc(Nc2ccc3[nH]cnc3c2)ncc1C(F)(F)F | 4 nM | 
34 | FC(F)(F)c1cnc(Nc2ccc3[nH]ccc3c2)nc1Nc1ccc2[nH]ccc2c1 | > 1000 nM | 
35 | COc1cccc(Oc2nc(Nc3ccc4nc[nH]c4c3)ncc2C(F)(F)F)c1 | 160 nM | 
36 | COc1ccc(Nc2nc(Nc3ccc4[nH]cnc4c3)ncc2C(F)(F)F)cc1 | 8 nM | IC50 [2]: > 1000 nM; IC50 [3]: 33 nM; IC50 [6]: 31 nM; IC50 [7]: 57 nM and 230 nM; IC50 [4]: > 1000 nM; IC50 [5]: 11 nM
37 | Brc1cnc(Nc2ccc3nc[nH]c3c2)nc1Nc1ccc2nc[nH]c2c1 | 14 nM | 
38 | FC(F)(F)c1cnc(Nc2cccc(Cl)c2)nc1Nc1ccc2[nH]cnc2c1 | 22 nM | 
39 | Cc1cccc(Nc2ncc(C(F)(F)F)c(Nc3ccc4nc[nH]c4c3)n2)c1 | 15 nM | 

Reference: ChEMBL document CHEMBL1141920, “Substituted aminobenzimidazole pyrimidines as cyclin-dependent kinase inhibitors” (Bioorg Med Chem Lett, 2005)
